Data published in article PMC11640419, “New Synthetic Analogs of Natural 5Z,9Z-Dienoic Acids—Hybrid Molecules Based on Oleanolic Acid: Synthesis and Study of Antitumor Activity” (Cancers, 2024).

Legend:
[1] = Cytotoxicity assay (7-AAD, flow cytometry); assay type: cell-based, human; settings: human, Jurkat cells; Jurkat, 24 h incubation
Experimental: The human cell lines Jurkat, K562, U937, and HEK293 were obtained from the European Collection of Authenticated Cell Cultures (ECACC) and subsequently cultured in accordance with established standard protocols and sterile techniques. […] Subsequently, the cells were seeded into 24-well plates at a density of 5 × 10^4 cells per well and incubated for 12 h (Jurkat, K562, U937) and 24 h (HEK293).
The viability of the cells was evaluated through the utilization of the 7-AAD (7-aminoactinomycin D) dye (eBioscience™, San Diego, CA, USA). Following a 24 h incubation period with the test substances, the cells were washed with phosphate-salt buffer (PBS) and centrifuged at 400× g for five minutes. […] Subsequently, all cell samples were subjected to analysis on a NovoCyte Penteon flow cytometer (Agilent, Santa Clara, CA, USA).

[2] = Cytotoxicity assay (7-AAD, flow cytometry); assay type: cell-based, human; settings: human
Experimental: The human cell lines Jurkat, K562, U937, and HEK293 were obtained from the European Collection of Authenticated Cell Cultures (ECACC) and subsequently cultured in accordance with established standard protocols and sterile techniques. The cells were maintained in RPMI 1640 (for Jurkat, K562, and U937) or DMEM (for HEK293) medium, both of which were supplemented with […], 10% FBS (Sigma, Kanagawa, Japan), and 100 units/mL penicillin-streptomycin (Sigma). Subsequently, the cells were seeded into 24-well plates at a density of 5 × 10^4 cells per well and incubated for 12 h (Jurkat, K562, U937) and 24 h (HEK293).
The viability of the cells was evaluated through the utilization of the 7-AAD (7-aminoactinomycin D) dye (eBioscience™, San Diego, CA, USA). Following a 24 h incubation period with the test substances, the cells were washed with phosphate-salt buffer (PBS) and centrifuged at 400× g for five minutes. The precipitate was resuspended in 200 μL of flow cytometry buffer (PBS without calcium and magnesium, 2.5% FBS) and incubated with a 1 mM 7-AAD dye solution for 15 min in the dark at room temperature. Subsequently, all cell samples were subjected to analysis on a NovoCyte Penteon flow cytometer (Agilent, Santa Clara, CA, USA).

[3] = HEK293 cells, HEK293, 24 h incubation
[4] = K562 cells, K562, 24 h incubation
[5] = U937 cells, U937, 24 h incubation

SMILES	CC50 at 24 h [1]	CC50 at 24 h [2, 3]	CC50 at 24 h [2, 4]	CC50 at 24 h [2, 5]
CC1(C)CC[C@]2(C(=O)Nc3ccncc3)CC[C@]3(C)C(=CCC4[C@@]5(C)CC[C@H](OC(=O)CCC/C=C\CC/C=C\CCCC(=O)O)C(C)(C)C5CC[C@]43C)C2C1 (stereo partly shown) [compound 9g]	80.4 ± 7.86 µM	223 ± 21.8 µM	72.1 ± 6.39 µM	61.2 ± 6.48 µM
CC1(C)CC[C@]2(C(=O)O)CC[C@]3(C)C(=CC[C@@H]4[C@@]5(C)CC[C@H](O)C(C)(C)[C@@H]5CC[C@]43C)[C@@H]2C1 [Oleanoic acid, Oleanolic acid]	199 ± 18.4 µM	497 ± 39.8 µM	171 ± 16.5 µM	144 ± 14.3 µM
CC1(C)CC[C@]2(C(=O)NCc3cccs3)CC[C@]3(C)C(=CCC4[C@@]5(C)CC[C@H](O)C(C)(C)C5CC[C@]43C)C2C1 (stereo partly shown) [compound 8e]	165 ± 14.2 µM	593 ± 53.9 µM	149 ± 12.6 µM	122 ± 12 µM
CC1(C)CC[C@]2(C(=O)Nc3nccs3)CC[C@]3(C)C(=CCC4[C@@]5(C)CC[C@H](OC(=O)CCC/C=C\CC/C=C\CCCC(=O)O)C(C)(C)C5CC[C@]43C)C2C1 (stereo partly shown) [compound 9f]	96.7 ± 9.18 µM	205 ± 19.7 µM	84.4 ± 8.47 µM	79.7 ± 6.78 µM
CC1(C)CC[C@]2(C(=O)Nc3cccc4cccnc34)CC[C@]3(C)C(=CCC4[C@@]5(C)CC[C@H](OC(=O)CCC/C=C\CC/C=C\CCCC(=O)O)C(C)(C)C5CC[C@]43C)C2C1 (stereo partly shown) [compound 9i]	84.7 ± 8.21 µM	262 ± 22.7 µM	77.3 ± 6.85 µM	62.9 ± 5.91 µM
Cn1nccc1NC(=O)[C@]12CCC(C)(C)CC1C1=CCC3[C@@]4(C)CC[C@H](O)C(C)(C)C4CC[C@@]3(C)[C@]1(C)CC2 (stereo partly shown) [compound 8a]	23.8 ± 2.84 µM	110 ± 10.3 µM	20.4 ± 2.11 µM	19.6 ± 1.96 µM
CC(=O)O[C@H]1CC[C@@]2(C)C(CC[C@]3(C)C2CC=C2C4CC(C)(C)CC[C@]4(C(=O)Nc4cc(C)on4)CC[C@]23C)C1(C)C (stereo partly shown) [compound 7h]	146 ± 14 µM	489 ± 44.8 µM	139 ± 12.9 µM	129 ± 11.7 µM
CC(=O)O[C@H]1CC[C@@]2(C)C(CC[C@]3(C)C2CC=C2C4CC(C)(C)CC[C@]4(C(=O)Nc4c(C)n(C)n(-c5ccccc5)c4=O)CC[C@]23C)C1(C)C (stereo partly shown) [compound 7b]	86.5 ± 8.46 µM	218 ± 20.7 µM	81.3 ± 7.98 µM	72.2 ± 7.34 µM
CC(=O)O[C@H]1CC[C@@]2(C)C(CC[C@]3(C)C2CC=C2C4CC(C)(C)CC[C@]4(C(=O)Nc4nccs4)CC[C@]23C)C1(C)C (stereo partly shown) [compound 7f]	152 ± 14.1 µM	494 ± 42.2 µM	144 ± 12.8 µM	132 ± 12.9 µM
Cc1cc(NC(=O)[C@]23CCC(C)(C)CC2C2=CCC4[C@@]5(C)CC[C@H](O)C(C)(C)C5CC[C@@]4(C)[C@]2(C)CC3)no1 (stereo partly shown) [compound 8h]	179 ± 17.1 µM	598 ± 59 µM	161 ± 16.4 µM	155 ± 15.2 µM
Cc1cc(NC(=O)[C@]23CCC(C)(C)CC2C2=CCC4[C@@]5(C)CC[C@H](OC(=O)CCC/C=C\CC/C=C\CCCC(=O)O)C(C)(C)C5CC[C@@]4(C)[C@]2(C)CC3)no1 (stereo partly shown) [compound 9h]	91.2 ± 8.34 µM	213 ± 18.3 µM	81.5 ± 7.62 µM	72.3 ± 6.85 µM
CC(=O)O[C@H]1CC[C@@]2(C)C(CC[C@]3(C)C2CC=C2C4CC(C)(C)CC[C@]4(C(=O)NC45CC6CC(CC(C6)C4)C5)CC[C@]23C)C1(C)C (stereo partly shown) [compound 7c]	121 ± 11.8 µM	366 ± 34.7 µM	104 ± 10.6 µM	98.9 ± 9.54 µM
CC1(C)CC[C@]2(C(=O)Nc3cccc4cccnc34)CC[C@]3(C)C(=CCC4[C@@]5(C)CC[C@H](O)C(C)(C)C5CC[C@]43C)C2C1 (stereo partly shown) [compound 8i]	165 ± 14.3 µM	515 ± 40.3 µM	155 ± 12.9 µM	142 ± 12.5 µM
CC1(C)CC[C@]2(C(=O)NCc3cccs3)CC[C@]3(C)C(=CCC4[C@@]5(C)CC[C@H](OC(=O)CCC/C=C\CC/C=C\CCCC(=O)O)C(C)(C)C5CC[C@]43C)C2C1 (stereo partly shown) [compound 9e]	76.3 ± 7.25 µM	195 ± 17.9 µM	69.8 ± 6.99 µM	56.4 ± 5.11 µM
CC1(C)CC[C@]2(C(=O)NC34CC5CC(CC(C5)C3)C4)CC[C@]3(C)C(=CCC4[C@@]5(C)CC[C@H](OC(=O)CCC/C=C\CC/C=C\CCCC(=O)O)C(C)(C)C5CC[C@]43C)C2C1 (stereo partly shown) [compound 9c]	54.4 ± 5.88 µM	167 ± 15.5 µM	49.2 ± 5.01 µM	29.4 ± 3.18 µM
CC(=O)O[C@H]1CC[C@@]2(C)C(CC[C@]3(C)C2CC=C2C4CC(C)(C)CC[C@]4(C(=O)Nc4ccncc4)CC[C@]23C)C1(C)C (stereo partly shown) [compound 7g]	143 ± 14.3 µM	430 ± 41.9 µM	125 ± 11.9 µM	112 ± 12.3 µM
CC(NC(=O)[C@]12CCC(C)(C)CC1C1=CCC3[C@@]4(C)CC[C@H](O)C(C)(C)C4CC[C@@]3(C)[C@]1(C)CC2)C12CC3CC(CC(C3)C1)C2 (stereo partly shown) [compound 8d]	110 ± 11.6 µM	398 ± 37.6 µM	93.8 ± 8.91 µM	58.1 ± 6.26 µM
CC(=O)O[C@H]1CC[C@@]2(C)C(CC[C@]3(C)C2CC=C2C4CC(C)(C)CC[C@]4(C(=O)NCc4cccs4)CC[C@]23C)C1(C)C (stereo partly shown) [compound 7e]	131 ± 12.5 µM	438 ± 42.6 µM	125 ± 11.9 µM	108 ± 11 µM
CC1(C)CC[C@]2(C(=O)Nc3ccncc3)CC[C@]3(C)C(=CCC4[C@@]5(C)CC[C@H](O)C(C)(C)C5CC[C@]43C)C2C1 (stereo partly shown) [compound 8g]	160 ± 14.3 µM	443 ± 40.3 µM	137 ± 12.4 µM	135 ± 12.8 µM
CC(=O)O[C@H]1CC[C@@]2(C)C(CC[C@]3(C)C2CC=C2C4CC(C)(C)CC[C@]4(C(=O)NC(C)C45CC6CC(CC(C6)C4)C5)CC[C@]23C)C1(C)C (stereo partly shown) [compound 7d]	120 ± 11.8 µM	342 ± 33.8 µM	99.9 ± 9.38 µM	97.1 ± 8.96 µM
CC(=O)O[C@H]1CC[C@@]2(C)C(CC[C@]3(C)C2CC=C2C4CC(C)(C)CC[C@]4(C(=O)Nc4cccc5cccnc45)CC[C@]23C)C1(C)C (stereo partly shown) [compound 7i]	153 ± 13.9 µM	456 ± 42.7 µM	133 ± 12.9 µM	122 ± 12.8 µM
CC1(C)CC[C@]2(C(=O)Nc3nccs3)CC[C@]3(C)C(=CCC4[C@@]5(C)CC[C@H](O)C(C)(C)C5CC[C@]43C)C2C1 (stereo partly shown) [compound 8f]	189 ± 17.4 µM	611 ± 57.7 µM	168 ± 17.1 µM	157 ± 15 µM
Cc1c(NC(=O)[C@]23CCC(C)(C)CC2C2=CCC4[C@@]5(C)CC[C@H](OC(=O)CCC/C=C\CC/C=C\CCCC(=O)O)C(C)(C)C5CC[C@@]4(C)[C@]2(C)CC3)c(=O)n(-c2ccccc2)n1C (stereo partly shown) [compound 9b]	6.11 ± 0.56 µM	21.4 ± 2.33 µM	5.76 ± 0.69 µM	4.86 ± 0.42 µM
CC1(C)CC[C@]2(C(=O)NC34CC5CC(CC(C5)C3)C4)CC[C@]3(C)C(=CCC4[C@@]5(C)CC[C@H](O)C(C)(C)C5CC[C@]43C)C2C1 (stereo partly shown) [compound 8c]	115 ± 12.1 µM	414 ± 39.5 µM	94.7 ± 8.68 µM	57.6 ± 6.49 µM
Cc1c(NC(=O)[C@]23CCC(C)(C)CC2C2=CCC4[C@@]5(C)CC[C@H](O)C(C)(C)C5CC[C@@]4(C)[C@]2(C)CC3)c(=O)n(-c2ccccc2)n1C (stereo partly shown) [compound 8b]	98.7 ± 9.39 µM	267 ± 22.7 µM	94.8 ± 9.57 µM	85.4 ± 8.64 µM
